Data set [1] is described as follows: Measurement of Log P values by HPLC on reversed phase columns (EEC directive 79/831 Annex V.A8). In kind it is physicochemical. Conditions: Table 1, compounds of formula (I); method [a]: LC-UV, acidic range, 0.1% formic acid in water and acetonitrile.
Data set [2] concerns Colletotrichum lindemuthianum. In words: Colletotrichum lindemuthianum in vitro cell test. Type of data set: cell-based. The settings on record: 144 h, liquid culture, 6 days incubation, read-out: efficacy (inhibition of fungal growth); for inhibition at 50 µM: 50 μMol/l of active ingredient; for inhibition at 20 ppm: 20 ppm of active ingredient. The protocol: (§1) B-7. Colletotrichum lindemuthianum In Vitro Cell Test • Solvent: DMSO • Culture medium: 14.6 g anhydrous D-glucose (VWR), 7.1 g Mycological Peptone (Oxoid), 1.4 g granulated Yeast Extract (Merck), QSP 1 liter • Inoculum: spores suspension Fungicides were solubilized in DMSO and the solution used to prepare the required range of concentrations. […] A spore suspension of C. lindemuthianum was prepared and diluted to the desired spore density. Fungicides were evaluated for their ability to inhibit spores germination and mycelium growth in liquid culture assay. The compounds were added in the desired concentration to the culture medium with spores. After 6 days incubation, fungi-toxicity of compounds was determined by spectrometric measurement of mycelium growth. Inhibition of fungal growth was determined by comparing the absorbance values in wells containing the fungicides with the absorbance in control wells without fungicides.

Data set [3] concerns Botrytis cinerea. In words: Botrytis cinerea in vitro cell test. Conditions: 144 h, liquid culture, 6 days incubation, read-out: efficacy (inhibition of fungal growth); for inhibition at 50 µM: 50 μMol/l of active ingredient; for inhibition at 20 ppm: 20 ppm of active ingredient. Type of data set: cell-based. The protocol: B-9. Botrytis cinerea In Vitro Cell Test • Solvent: DMSO • Culture medium: 1 g KH2PO4 (VWR), 1 g K2HPO4 (VWR), 0.5 g Urea (VWR), 3 g KNO3 (Prolabo), 10 g saccharose (VWR), 0.5 g MgSO4, 7H2O (Sigma), 0.07 g CaCl2, 2H2O (Prolabo), 0.2 mg MnSO4, H2O (Sigma), 0.6 mg CuSO4, 5H2O (Sigma), 7.9 mg ZnSO4, 7H2O (Sigma), 0.1 mg H3BO3 (Merck), 0.14 mg NaMoO4, 2H2O (Sigma), 2 mg thiamine (Sigma), 0.1 mg biotine (VWR), 4 mg FeSO4, 7H2O (Sigma), QSP 1 liter • Inoculum: spore suspension Fungicides were solubilized in DMSO and the solution used to prepare the required range of concentrations. […] A spore suspension of B. cinerea was prepared and diluted to the desired spore density. Fungicides were evaluated for their ability to inhibit spore germination and mycelium growth in liquid culture assay. The compounds were added in the desired concentration to the culture medium with spores. After 6 days incubation, fungi-toxicity of compounds was determined by spectrometric measurement of mycelium growth. Inhibition of fungal growth was determined by comparing the absorbance values in wells containing the fungicides with the absorbance in control wells without fungicides.

Data set [4] relates to Botrytis cinerea. In words: In vivo preventive test on Botrytis cinerea (grey mould). The settings on record: 500 ppm of active ingredient, sprayed on young gherkin or cabbage plants 24 h before inoculation, evaluated 4 to 5 days after inoculation, read-out: efficacy. On the procedure:
The active ingredients were made soluble and homogenized in a mixture of Dimethyl sulfoxide/Acetone//Tween® 80 and then diluted in water to the desired concentration. The young plants of gherkin or cabbage were treated by spraying the active ingredient prepared as described above. Control plants were treated only with an aqueous solution of Acetone/Dimethyl sulfoxide/Tween® 80. After 24 hours, the plants were contaminated by spraying the leaves with an aqueous suspension of Botrytis cinerea spores.

Data set [5] deals with Fusarium culmorum. In words: Fusarium culmorum in vitro cell test. Type of data set: cell-based. The settings on record: 120 h, 50 μMol/l of active ingredient, liquid culture, 5 days incubation, read-out: efficacy (inhibition of fungal growth). The protocol:
B-10. Fusarium culmorum In Vitro Cell Test • Solvent: DMSO • Culture medium: 1 g KH2PO4 (VWR), 1 g K2HPO4 (VWR), 0.5 g Urea (VWR), 3 g KNO3 (Prolabo), 10 g saccharose (VWR), 0.5 g MgSO4, 7H2O (Sigma), 0.07 g CaCl2, 2H2O (Prolabo), 0.2 mg MnSO4, H2O (Sigma), 0.6 mg CuSO4, 5H2O (Sigma), 7.9 mg ZnSO4, 7H2O (Sigma), 0.1 mg H3BO3 (Merck), 0.14 mg NaMoO4, 2H2O (Sigma), 2 mg thiamine (Sigma), 0.1 mg biotine (VWR), 4 mg FeSO4, 7H2O (Sigma), QSP 1 liter • Inoculum: spores suspension
Fungicides were solubilized in DMSO and the solution used to prepare the required range of concentrations. The final concentration of DMSO used in the assay was ≤1%.
A spore suspension of F. culmorum was prepared and diluted to the desired spore density.
Fungicides were evaluated for their ability to inhibit spore germination and mycelium growth in liquid culture assay. The compounds were added in the desired concentration to the culture medium with spores. After 5 days incubation, fungi-toxicity of compounds was determined by spectrometric measurement of mycelium growth. Inhibition of fungal growth was determined by comparing the absorbance values in wells containing the fungicides with the absorbance in control wells without fungicides.

The subject of data set [6] is Pyricularia oryzae. In words: microbe, parasite or virus in culture. Type of data set: cell-based. Conditions: 120 h; for inhibition at 20 ppm: read-out: efficacy (inhibition of fungal growth), 20 ppm of active ingredient, liquid culture, 5 days incubation.
Data set [7] has as its system Pyrenophora teres. In words: Pyrenophora teres in vitro cell test. Type of data set: cell-based. The settings on record: 144 h, liquid culture, 6 days incubation, read-out: efficacy (inhibition of fungal growth). On the procedure: as §1, with “B-8. Pyrenophora teres In” for “B-7. Colletotrichum lindemuthianum In”, “Inoculum: spore” for “Inoculum: spores”, “of P. teres” for “of C. lindemuthianum”, “inhibit spore” for “inhibit spores”

The values below come from patent publication US20250042886A1, “BIS(HETERO)ARYL THIOETHER OXADIAZINES AS FUNGICIDAL COMPOUNDS” (Bayer Aktiengesellschaft, priority 2021, published 2025).

Regarding `Cc1cc([C@@H]2CON=C(c3c(Sc4cccc(OC(F)(F)F)c4)nnc(C)c3C)N2)c(C)s1` (racemic) [Compound I-047], in data set [1], the chromatographic logP worked out at 3.83. In addition, in data set [2], the inhibition at 50 µM lay within 90 to 100%.

`Cc1ccc([C@H]2CON=C(c3c(Sc4ccc(F)c(Cl)c4)nnc(C)c3C)N2)s1` (racemic) [Compound I-083]: in data set [1], the chromatographic logP stood at 3.26. In addition, the inhibition at 50 µM in data set [2] and in data set [3] was 90 to 100% throughout.

In the case of `Cc1ccc([C@H]2CON=C(c3c(Sc4ccc(F)cc4F)nnc4ccccc34)N2)s1` (racemic) [Compound I-048], the pest or weed control at 500 ppm in data set [4] lay in the range of 90 to 100%. In data set [1], the chromatographic logP stood at 3.4. The inhibition at 50 µM in data set [3] fell in the range of 90 to 100%.

With `Cc1ccc([C@H]2CON=C(c3c(Sc4ccccc4)nnc(C)c3C)N2)s1` (racemic) [Compound I-117], the pest or weed control at 500 ppm in data set [4] lay in the range of 90 to 100%. The chromatographic logP in data set [1] came to 2.69. The inhibition at 50 µM in data set [3] was 90 to 100%; in data set [5] it was 80 to 89%.

On to `Cc1cccc(Sc2nnc(C)c(C)c2C2=NOC[C@H](c3ccc(C)s3)N2)n1` (racemic) [Compound I-127], for which the pest or weed control at 500 ppm in data set [4] lay within 80 to 89%. Moreover, the chromatographic logP in data set [1] worked out at 2.21.

`COc1cccc(Sc2nnc(C)c(C)c2C2=NOC[C@@H](c3ccc(C)s3)N2)c1` (racemic) [Compound I-084] returned a chromatographic logP in data set [1] of 2.77. In addition, the inhibition at 50 µM in data set [2] was 90 to 100%; in data set [3], 70 to 79%.

For `Cc1ccc(C[C@H]2CON=C(c3c(Sc4cccc(OC(F)(F)F)c4)cnc4ccccc34)N2)c(C)c1` (racemic) [Compound I-025], in data set [1], the chromatographic logP amounted to 4.73. The inhibition at 20 ppm in data set [2] and in data set [3] was 90 to 100% throughout.

In data set [1], `CCOc1cccc(Sc2nnc3ccccc3c2C2=NOC[C@H](c3ccc(C)s3)N2)c1` (racemic) [Compound I-040] showed a chromatographic logP of 3.55. The results for the inhibition at 50 µM in data set [2], in data set [3] and in data set [5] were 90 to 100%, 70 to 79% and 80 to 89%, respectively.

`COc1cccc(Sc2cnc(Cl)cc2C2=NOC[C@H](Cc3ccc(Cl)cc3Cl)N2)c1` (racemic) [Compound I-002]: the chromatographic logP in data set [1] turned out to be 4.51. In addition, the inhibition at 20 ppm lay within 90 to 100% in data set [2], 90 to 100% in data set [3] and 70 to 79% in data set [6].

`CCOc1cccc(Sc2nnc(C)c(C)c2C2=NOC[C@@H](c3ccc(C)s3)N2)c1` (racemic) [Compound I-074] displayed a chromatographic logP in data set [1] of 3.09. In addition, the inhibition at 50 µM in data set [2] is 90 to 100%.

For `COc1cccc(Sc2nnc(Cl)cc2C2=NOC[C@@H](Cc3ccc(Cl)cc3Cl)N2)c1` (racemic) [Compound I-034], the chromatographic logP in data set [1] amounted to 4.3. Further, the inhibition at 20 ppm is 90 to 100% in data set [2], 90 to 100% in data set [3] and 70 to 79% in data set [6].

`Cc1ccc([C@@H]2CON=C(c3c(Sc4cccc5ccccc45)nnc4ccccc34)N2)s1` (racemic) [Compound I-102] yielded a chromatographic logP in data set [1] of 3.8. Also, the inhibition at 50 µM in data set [2] and in data set [3] was 80 to 89% throughout.

In turn, `Cc1ccc(CC2CON=C(c3cc(Cl)nnc3S(=O)(=O)c3cccc(C(F)(F)F)c3)N2)c(C)c1` (racemic) [Compound I-001, (5RS)-3-(6-chloro-3-{[3-(trifluoromethyl)phenyl]sulfonyl}pyridazin-4-yl)-5-(2,4-dimethylbenzyl)-5,6-dihydro-4H-1,2,4-oxadiazine] returned a chromatographic logP in data set [1] of 4.24. The inhibition at 20 ppm in data set [6] was 90 to 100%.

For `Cc1ccc(Sc2nnc(C)c(C)c2C2=NOC[C@@H](c3ccc(C)s3)N2)c(C)c1` (racemic) [Compound I-126], the chromatographic logP in data set [1] turned out to be 3.28. Further, in data set [2], the inhibition at 50 µM was in the range of 70 to 79%.

As to `Cc1cccc(Sc2nnc(Cl)cc2C2=NOC[C@@H](Cc3ccc(Cl)cc3Cl)N2)c1` (racemic) [Compound I-028], the LogP in data set [1] is 4.56^[a]. Moreover, the values for the inhibition at 20 ppm in data set [2], in data set [7] (20 ppm of active ingredient) and in data set [6] were 80 to 89%, 90 to 100% and 70 to 79%, respectively.

Take `Cc1ccc(Sc2nnc(C)c(C)c2C2=NOC[C@@H](c3cc(C)sc3C)N2)cc1` (racemic) [Compound I-099]: the pest or weed control at 500 ppm in data set [4] lay in the range of 70 to 79%. The compound also returned a chromatographic logP in data set [1] of 3.36. Moreover, the results for the inhibition at 50 µM in data set [2] and in data set [3] were 70 to 79% and 80 to 89%, respectively.

For `Cc1ccc([C@@H]2CON=C(c3c(Sc4cccc(OC(F)(F)F)c4)nnc(C)c3C)N2)s1` (racemic) [Compound I-055], in data set [4], the pest or weed control at 500 ppm is 70 to 79%. Also, the chromatographic logP in data set [1] amounted to 3.48. Moreover, the inhibition at 50 µM in data set [2] was in the range of 90 to 100%; in data set [3] it was 80 to 89%.

With `Cc1ccc([C@@H]2CON=C(c3c(Sc4ccccc4C)nnc(C)c3C)N2)s1` (racemic) [Compound I-045], the pest or weed control at 500 ppm in data set [4] was in the range of 80 to 89%. In addition, the chromatographic logP in data set [1] was 2.94. Also, the inhibition at 50 µM in data set [3] was in the range of 80 to 89%.

On to `FC(F)(F)Oc1cccc(Sc2cnc(Cl)cc2C2=NOC[C@H](Cc3ccc(Cl)cc3Cl)N2)c1` (racemic) [Compound I-020], for which, in data set [1], the chromatographic logP was found to be 5.13. For the same compound, the inhibition at 20 ppm in data set [2] lay in the range of 90 to 100%.

In data set [1], `Cc1cc([C@@H]2CON=C(c3c(Sc4cccc(C(F)(F)F)c4)nnc(C)c3C)N2)c(C)s1` (racemic) [Compound I-086, (5R,S)-(2,5-dimethyl-3-thienyl)-3-(5,6-dimethyl-3-{[3-(trifluoromethyl)phenyl]sulfanyl}pyridazin-4-yl)-5,6-dihydro-4H-1,2,4-oxadiazine] yielded a chromatographic logP of 3.72. In addition, the inhibition at 50 µM in data set [2] was in the range of 90 to 100%; in data set [3] it was 90 to 100%; in data set [7] (50 μMol/l of active ingredient) it was 90 to 100%; in data set [6] (read-out: efficacy (inhibition of fungal growth), 50 μMol/l of active ingredient, liquid culture, 5 days incubation), 70 to 79%.

As for `Cc1ccc([C@H]2CON=C(c3c(Sc4ccc(Cl)c(Cl)c4)nnc4ccccc34)N2)s1` (racemic) [Compound I-038], the pest or weed control at 500 ppm in data set [4] was 70 to 79%. In addition, in data set [1], the chromatographic logP is 4.04. In data set [3], the inhibition at 50 µM was 90 to 100%.

For `CCOc1cccc(Sc2nnc(C)c(C)c2C2=NOC[C@@H](c3cc(C)sc3C)N2)c1` (racemic) [Compound I-046], the chromatographic logP in data set [1] is 3.44. The inhibition at 50 µM in data set [2] fell in the range of 80 to 89%.

For orientation: chromatographic logP means a lipophilicity value derived from retention on a column. A higher chromatographic logP goes with a more lipophilic compound.
